{"source": "patent EP4545548B1", "about": "“INSECT NEUROPEPTIDES” (Solasta Bio Limited, priority 2023, dated 2025)", "tested_on": "bees", "assay": "Bee oral toxicity test adapted from OECD Test No. 247 (Bumblebee, Acute Oral Toxicity Test)", "format": "in vivo", "conditions": "% survival after 96 hours, compared to Imidacloprid, Figure 9", "description": "Bee oral testing protocol was carried out adapted from OECD Test No. 247: Bumblebee, Acute Oral Toxicity Test. The toxicity of SB-P-47 was compared with a negative control of sucrose or vehicle, and with a current commercial insecticide Imidacloprid.", "note": "Where a SMILES comes first, the peptide text is derived from it. [ ]: non-standard residue; d: D form. pGlu = O=C1CC[C@@H](C(=O)O)N1"}
{"smiles": "CC[C@H](C)[C@H](NC(=O)[C@H](C)NC(=O)[C@@H]1CCC(=O)N1)C(=O)N[C@@H](CCSC)C(=O)N[C@@H](C)C(=O)N[C@@H](CCCNC(=N)N)C(=O)N1CCC[C@H]1C(=O)N[C@@H](CCC(N)=O)C(=O)N[C@H](C(=O)N1CCC[C@H]1C(=O)N[C@@H](CCCNC(=N)N)C(=O)N[C@@H](CC(C)C)C(N)=O)C(C)C", "note": "[SB-P-47, [Pyr]-AIMARPQVPRL-[NH2]] ([pGlu]AIMARPQVPRL-NH2)", "values": [{"measurement": "toxicity to key pollinator species such as bees", "result": "far lower toxicity"}]}
